Measured values taken from ChEMBL document CHEMBL5257023, “Identification of leads for antiproliferative activity on MDA-MB-435 human breast cancer cells through pharmacophore and CYP1A1-mediated metabolism” (Eur J Med Chem, 2016).
Where a name gives a salt, the structure may show the parent alone. Values belong to the compound of their own block, whether it stands above or below them.

Columns and labels:
[1] = system: MCF7; experiment: Anticancer activity against human MCF7 cells assessed as inhibition of cell growth; type: functional, cell-based
[2] = system: MDA-MB-435; experiment: Anticancer activity against human MDA-MB-435 cells assessed as inhibition of cell growth incubated for 48 hrs by SRB assay; type: functional
[3] = system: NCI-H226; experiment: Anticancer activity against human NCI-H226 cells assessed as cell growth at 10 uM incubated for 48 hrs by SRB assay; type: functional; settings: read-out: Activity
[4] = system: MDA-MB-435; experiment: Anticancer activity against human MDA-MB-435 cells assessed as cell growth at 100 uM incubated for 48 hrs by SRB assay; type: functional; settings: read-out: Activity
[5] = system: MDA-MB-435; experiment: Anticancer activity against human MDA-MB-435 cells assessed as cell growth at 0.1 uM incubated for 48 hrs by SRB assay; type: functional; settings: read-out: Activity
[6] = system: MCF7; experiment: Anticancer activity against human MCF7 cells assessed as cell growth at 1 uM incubated for 48 hrs by SRB assay; type: functional; settings: read-out: Activity
[7] = system: NCI-H226; experiment: Anticancer activity against human NCI-H226 cells assessed as cell growth at 1 uM incubated for 48 hrs by SRB assay; type: functional; settings: read-out: Activity
[8] = system: MDA-MB-435; experiment: Anticancer activity against human MDA-MB-435 cells assessed as cell growth at 10 uM incubated for 48 hrs by SRB assay; type: functional; settings: read-out: Activity
[9] = system: MDA-MB-468; experiment: Anticancer activity against human MDA-MB-468 cells assessed as inhibition of cell growth incubated for 48 hrs by SRB assay; type: functional
[10] = system: MCF7; experiment: Anticancer activity against human MCF7 cells assessed as cell growth at 100 uM incubated for 48 hrs by SRB assay; type: functional; settings: read-out: Activity
[11] = system: NCI-H226; experiment: Anticancer activity against human NCI-H226 cells assessed as inhibition of cell growth incubated for 48 hrs by SRB assay; type: functional
[12] = system: MDA-MB-468; experiment: Anticancer activity against human MDA-MB-468 cells assessed as cell growth at 100 uM incubated for 48 hrs by SRB assay; type: functional; settings: read-out: Activity
[13] = system: MCF7; experiment: Anticancer activity against human MCF7 cells assessed as cell growth at 0.1 uM incubated for 48 hrs by SRB assay; type: functional; settings: read-out: Activity
[14] = system: NCI-H226; experiment: Anticancer activity against human NCI-H226 cells assessed as cell growth at 100 uM incubated for 48 hrs by SRB assay; type: functional; settings: read-out: Activity
[15] = system: MCF7; experiment: Anticancer activity against human MCF7 cells assessed as inhibition of cell growth incubated for 48 hrs by SRB assay; type: functional
[16] = system: NCI-H226; experiment: Anticancer activity against human NCI-H226 cells assessed as cell growth at 0.1 uM incubated for 48 hrs by SRB assay; type: functional; settings: read-out: Activity
[17] = system: MCF7; experiment: Anticancer activity against human MCF7 cells assessed as cell growth at 10 uM incubated for 48 hrs by SRB assay; type: functional; settings: read-out: Activity
[18] = system: MDA-MB-468; experiment: Anticancer activity against human MDA-MB-468 cells assessed as cell growth at 0.1 uM incubated for 48 hrs by SRB assay; type: functional; settings: read-out: Activity
[19] = system: MDA-MB-468; experiment: Anticancer activity against human MDA-MB-468 cells assessed as cell growth at 10 uM incubated for 48 hrs by SRB assay; type: functional; settings: read-out: Activity
[20] = system: MDA-MB-435; experiment: Anticancer activity against human MDA-MB-435 cells assessed as cell growth at 1 uM incubated for 48 hrs by SRB assay; type: functional; settings: read-out: Activity
[21] = system: MDA-MB-468; experiment: Anticancer activity against human MDA-MB-468 cells assessed as cell growth at 1 uM incubated for 48 hrs by SRB assay; type: functional; settings: read-out: Activity
[22] = read-out: LC50 (the source's name)

SMILES: O=c1c(-c2cccc([N+](=O)[O-])c2)coc2ccccc12
- IC50 [1]: 7.9 µM

SMILES: COc1cccc(-c2nc3cc(F)ccc3o2)c1
- IC50 [1]: 39.5 µM

SMILES: COc1ccc(-c2cc(=O)c3cc(F)ccc3o2)cc1OC
- IC50 [1]: 83.4 µM

SMILES: c1ccc2sc(-c3ccc4c(c3)OCO4)nc2c1
- IC50 [1]: 57.8 µM

SMILES: CS(=O)(=O)c1ccc2nc(-c3ccc(O)cc3)sc2c1
- IC50 [1]: 62.3 µM

SMILES: COc1cccc(OC)c1-c1nc2cc(F)ccc2o1
- IC50 [1]: 58.1 µM

SMILES: O=c1c(-c2ccc(Cl)cc2)coc2ccccc12
- IC50 [1]: 64.9 µM

SMILES: COc1ccc(-c2nc3cc(Cl)ccc3s2)cc1OC
- IC50 [1]: 27.9 µM

SMILES: COc1cccc2c1C(=O)c1c(O)c3c(c(O)c1C2=O)C[C@@](O)(C(=O)CO)C[C@@H]3O[C@H]1C[C@H](N)[C@H](O)[C@H](C)O1 [DOXORUBICIN HYDROCHLORIDE]
- GI50 [2]: < 0.1 µM
- TGI [2]: 43.4 µM
- growth at 10 µM [3]: 8.1%
- growth at 100 µM [4]: -30.9%
- growth at 0.1 µM [5]: 50.8%
- growth at 1 µM [6]: 17.2%
- growth at 1 µM [7]: 12.7%
- growth at 10 µM [8]: -26.6%
- GI50 [9]: 10.5 µM
- TGI [9]: 50.4 µM
- CC50 [9, 22]: 90.2 µM
- growth at 100 µM [10]: -1.6%
- GI50 [11]: < 0.1 µM
- TGI [11]: 43.2 µM
- growth at 100 µM [12]: -60.9%
- growth at 0.1 µM [13]: 28.5%
- growth at 100 µM [14]: -38.3%
- GI50 [15]: < 0.1 µM
- TGI [15]: 90.4 µM
- CC50 [15, 22]: > 100 µM
- growth at 0.1 µM [16]: 57.4%
- growth at 10 µM [17]: 10.5%
- growth at 0.1 µM [18]: 83%
- growth at 10 µM [19]: 22%
- growth at 1 µM [20]: 42.8%
- growth at 1 µM [21]: 64.5%

SMILES: COc1ccc(-c2nc3cc(F)ccc3o2)cc1OC
- IC50 [1]: 0.83 µM

SMILES: O=c1c(-c2ccc(Br)cc2)coc2ccccc12
- IC50 [1]: 8.8 µM

SMILES: COc1ccc(-c2coc3c(F)c(F)ccc3c2=O)cc1OC
- IC50 [1]: 47.2 µM

SMILES: COc1ccc(-c2nc3cc(F)ccc3s2)cc1F
- IC50 [1]: 0.87 µM

SMILES: COc1ccc(-c2nc3ccc(F)cc3o2)cc1
- IC50 [1]: 41 µM

SMILES: COc1ccc(-c2coc3cc(F)c(F)cc3c2=O)cc1OC
- IC50 [1]: 41.5 µM

SMILES: COc1ccc(-c2coc3ccccc3c2=O)cc1
- IC50 [1]: 81.4 µM

SMILES: COc1ccc(-c2nc3cc(F)ccc3s2)cc1Br
- IC50 [1]: 0.85 µM

SMILES: COc1ccc(-c2coc3c(F)cc(F)cc3c2=O)cc1OC
- IC50 [1]: 46.7 µM

SMILES: COc1ccc(-c2nc3ccc(F)cc3o2)c(OC)c1
- IC50 [1]: 69.9 µM

SMILES: COc1ccc(-c2coc3cc(F)ccc3c2=O)cc1
- IC50 [1]: 43.8 µM

More lines, in order of falling IC50 [1], values ahead:

- IC50 [1]: 0.82 µM
SMILES: COc1ccc(-c2nc3cc(F)ccc3s2)cc1I

- IC50 [1]: 0.76 µM
SMILES: COc1ccc(-c2nc3cc(F)ccc3s2)cc1Cl

- IC50 [1]: 0.653 µM
SMILES: COc1cc(-c2nc3cc(F)ccc3s2)cc(O)c1OC

- IC50 [1]: 0.57 µM
SMILES: Oc1cccc(-c2nc3cc(F)ccc3s2)c1

- IC50 [1]: 0.5 µM
SMILES: Cc1ccc(-c2nc3cc(F)ccc3s2)cc1O

- IC50 [1]: 0.49 µM
SMILES: COc1ccc(-c2nc3cc(F)ccc3s2)cc1

- IC50 [1]: 0.08 µM
SMILES: CCOc1cc(-c2nc3cc(F)ccc3s2)ccc1OC

- IC50 [1]: 0.065 µM
SMILES: COCOc1ccc(-c2nc3cc(F)ccc3s2)cc1OC

- IC50 [1]: 0.023 µM
SMILES: COc1ccc(-c2nc3cc(F)ccc3s2)c(OC)c1OC

- IC50 [1]: 0.005 µM
SMILES: COc1ccc(-c2nc3c(F)cccc3s2)cc1OC

- IC50 [1]: 0.0019 µM
SMILES: COc1cc(-c2nc3cc(F)ccc3s2)cc(OC)c1OC

- IC50 [1]: 0.0001 µM
SMILES: Cc1cc(-c2nc3cc(F)ccc3s2)ccc1N
